Where a SMILES comes first, the peptide text is derived from it. The star is where a group is joined. 5FAM = O=C1OC2(c3ccc(O)cc3Oc3cc(O)ccc32)c2ccc(C(=O)*)cc21
Legend:
[1] = In vitro tissue permeability, isolated sclera (diffusion cells); format: in vitro ADME, rabbit
Experimental: (§1) Evaluation of in vitro tissue permeability of the covalently linked complex of Penetratin derivatives and small molecular substances: the experimental rabbits were anesthetized with pentobarbital sodium (30 mg/kg), which is injected via ear vein, and sacrificed by injection with excessive chloral hydrate (150 mg/kg). After separation of the conjunctiva, carefully removed the entire eyeball, make a circumcision at about 2 mm from the limbus of cornea and remove the cornea, and removed the iris and other tissues to obtain an experimental cornea. The rest of the eyeballs were removed from the retina and other tissues to obtain an experimental sclera. Both the cornea and sclera were carefully washed with Ringer's solution 3 times before use. The experiment was started within 30 min after the animals were sacrificed. The freshly isolated cornea and sclera were carefully sandwiched between two diffusion cells, with the epithelial surface facing a diffusion cell (supply cell) on the left, the diffusion window diameter was 10.25 mm, and the diffusion area was 0.825 cm^2. 3.5 mL of Ringer's solutions were added to the supply cell and a receiving cell on the right, respectively. Circulating water was passed therein, and the water temperature was kept at 34° C.±0.5° C. […] Immediately after the experiment, the fluorescence intensity of the sample was measured. […]

[2] = In vitro tissue permeability, isolated cornea (diffusion cells); format: in vitro ADME, rabbit
Experimental: as §1

[3] = Intraocular distribution of penetratin derivative-FAM complexes after conjunctival sac administration; format: in vivo, mice
Experimental: Evaluation of intraocular distribution of the covalently linked complex of Penetratin derivatives and small molecules: 5 μL of a solution of complex of penetratin derivative and FAM (concentration 30 μM) was dripped into the conjunctival sac of male mice, and the eyelids were gently closed to distribute the solution evenly. The solution was administered every 10 minutes for a total of 3 times, and taking the time of the last administration as zero time. At a preset time point, mice were killed by intraperitoneal injection of excessive chloral hydrate, and the eyeballs of the mice were removed, fixed with Davidson's solution for 0.5 h, and embedded. Frozen longitudinal sections of eyeballs were prepared and the nuclei were stained with DAPI, and the distribution of polypeptides in the eye parts was observed under an inverted fluorescence microscope.

[4] = 7.5 μM complex with FAM, 34° C.
[5] = DAPI stained frozen sections after permeability experiment
[6] = 10 min after conjunctival sac administration (FIG. 6B)

Papp value relative to wild-type penetratin, isolated sclera [1, 4]: ⅔ | fluorescence signal in isolated sclera sections compared with wild-type penetratin group [1, 5]: significantly weaker | Papp value relative to wild-type penetratin, isolated cornea [2, 4]: ⅕ | fluorescence in isolated cornea sections compared with wild-type penetratin group [2, 5]: no obvious fluorescence signal | distribution in the cornea [3, 6]: significantly less distributed | distribution in the retina [3, 6]: less distributed | FAM fluorescence signal in anterior and posterior segment of the eye compared with wild-type penetratin ([3]; 10 minutes after eye drops, 30 μM, 5 μL x 3): weakened | amount entering the eye (cornea and retina) compared with wild-type penetratin ([3]; semi-quantitative analysis (FIG. 6C)): significantly less
SMILES: C[C@H](NC(=O)[C@H](C)NC(=O)[C@H](CCCCN)NC(=O)[C@H](C)NC(=O)[C@H](CCC(N)=O)NC(=O)[C@@H](N)CCCNC(=N)N)C(=O)N[C@@H](C)C(=O)N[C@@H](CCC(N)=O)C(=O)N[C@@H](CC(N)=O)C(=O)N[C@@H](CCCNC(=N)N)C(=O)N[C@@H](CCCNC(=N)N)C(=O)N[C@@H](C)C(=O)N[C@@H](CCCCN)C(=O)N[C@@H](C)C(=O)N[C@@H](CCCCN)C(=O)N[C@@H](CCCCN)C(=O)N[C@@H](CCCCNC(=O)c1ccc2c(c1)C(=O)OC21c2ccc(O)cc2Oc2cc(O)ccc21)C(=O)O [6A, RQAKAAAQNRRAKAKKK-FAM] (H-RQAKAAAQNRRAKAKKK(5FAM)-OH)

— US11826431B2, “Polypeptide-based ocular absorption enhancer and application thereof” (Fudan University, priority 2017, dated 2023)
